In one assay the test system is HIV-1. Nature of the assay: Adsorption assay (RT activity in supernatant). The following applies: 10 µM, compound and virions added to MT-4 cells simultaneously, washed out after 2 h, RT activity 5 days after infection. Format: cell-based. How it is done:
To address virion binding and entry in a competitive setting, we performed an adsorption assay where test compounds and virions were added to MT-4 cells simultaneously and were washed out after 2 h of incubation. In parallel, we performed a replication assay where MT-4 cells were infected with HIV-1 and the tested compounds were added 1 h later. In both cases, the infection was evaluated by measuring reverse transcriptase activity in a cell-free supernatant 5 days after the infection (Fig. 3). As controls, PBS (phosphate-buffered saline) and inhibitors of different HIV-1 life-cycle steps were used: AMD (AMD3100), an inhibitor of gp120 attachment to CXCR4 receptors of the target cell, thus preventing HIV-1 adsorption and entry; AZT (azidothymidine), an inhibitor of reverse transcriptase; and RAL (raltegravir), an integrase inhibitor.
MT-4 cells were seeded in 80 µl of the Roswell Park Memorial Institute (RPMI) medium in the amount of 2 × 10^5 cells per well of a 96-well plate, and 10 µl of the virus stock were immediately added with the final multiplicity of infection (MOI) of 0.05. For a replication assay, the infected cells were incubated at 37 °C for 1 h before the addition of compounds being tested (10 µM final concentration) and subsequently cultivated at 37 °C for another 5 days. For an adsorption test, by contrast, the compounds (10 µM final concentration) were added simultaneously with the virus, and after 2 h of incubation, the cells were washed three times with PBS to remove the compounds and unbound virions; after the addition of 100 µl of the RPMI medium, the cells were cultivated at 37 °C for 5 days. Five days post-infection, aliquots of virus-containing cell-free supernatants were harvested and analysed by reverse transcriptase (RT) assay (described in the Supplementary Information). The experiments were performed as biological replicates where the sample size for each condition was n = 3.
RT assay. The reverse transcriptase (RT) activity in a cell-free supernatant was assessed by an α-32P RT assay. Briefly, the RT activity in the culture medium, which corresponded to the amount of HIV-1, was used to produce a DNA copy of an RNA template by extending a complementary oligo dT DNA primer with radiolabelled nucleotides. A reaction mixture containing 50 mM Tris-HCl pH 7.8, 75 mM KCl, 2 mM DTT, 5 mM MgCl2 and 0.5% NP-40 (all Sigma-Aldrich), 5 µg per ml of poly (rA)-poly (dT) (The Midlan Certified Reagent Company) with 1 µl 10-mCi/ml [α-32P]dTTP (American Radiolabeled Chemicals) per ml, and the tested sample was incubated at 37°C for two hours, after which 10 µl were spotted on DEAE blotting paper (PerkinElmer) and air-dried. After five washes with SSC buffer (0.15 M NaCl, 0.015 M sodium citrate) and three additional washes with 85% ethanol, the blotting paper was exposed to Phosphoscreen overnight, which was scanned on a Typhoon 9410 Phosphorimager instrument (GE Healthcare). The intensity of the dots was analysed by the ImageQuant software (GE Healthcare).

In a further assay the test system is h-telo G-quadruplex. Nature of the assay: Light-up experiment, h-telo. Format: binding. To be noted: 4 μM compound, excitation 280 nm. How it is done: (§1) The intensity of fluorescence measured after the incubation with both oligonucleotides incompetent of G-quadruplex formation was almost identical, with the maximum intensity 2.5 times lower than that of the G-quadruplex-forming oligonucleotide (wt). […] To examine the specificity of ligand 12, we have repeated the light-up experiment with single-stranded G4 LTR in parallel with double-stranded G4 LTR and additional G-quadruplexes (c-myc, c-kit1 and h-telo). […] To further evaluate the specificity of ligand 12, we performed the light-up titration experiment incubating compound 12 with serial dilutions (1:1) of oligonucleotides (ss G4 LTR wild type, G4 c-myc and c-kit1) spanning final concentrations 2 to 0.002 μM (Supplement Fig. S3B). […] This can indicate a slight preference of ligand 12 for ss G4 LTR than for c-myc at lower oligonucleotide concentrations.
(§2) The selected compounds were incubated in the presence of the G4 LTR wild-type (wt) oligonucleotide, the G4 LTR M4 + M5 oligonucleotide containing mutations that disabled G-quadruplex formation (described previously[41]), and the G4 LTR scrambled-sequence oligonucleotide, or the buffer-only control. The compounds were tested at a compound:oligonucleotide ratio of 2:1 (4 μM compounds and 2 μM oligonucleotide) in PBS in a 384-well plate. Emission spectra were measured after excitation at 280 nm in a Tecan Infinite M1000 plate reader. […]

A further assay has as its system c-kit1 G-quadruplex. In words: Light-up experiment, c-kit1. The following applies: 4 μM compound, excitation 280 nm. Format: binding. Here is the method:
as §1, §2

The subject of assay [1] is ss G4 LTR wild-type oligonucleotide. Nature of the assay: Light-up experiment, ss G4 LTR. Format: binding, HIV-1. The following applies: 4 μM compound. How it is done:
There are many small molecular probes for specific G4 visualization in cells. […] To distinguish specifically the potential light-up triggered by helquat binding to G-quadruplexes in the HIV-1 LTR, we employed two control oligonucleotides, both unable to form G-quadruplexes (Fig. 6A): an LTR oligonucleotide sequence with two point mutations precluding G4 formation and an LTR oligonucleotide with a scrambled sequence (both adopted from[41]).
The selected compounds were incubated in the presence of the G4 LTR wild-type (wt) oligonucleotide, the G4 LTR M4 + M5 oligonucleotide containing mutations that disabled G-quadruplex formation (described previously[41]), and the G4 LTR scrambled-sequence oligonucleotide, or the buffer-only control. The compounds were tested at a compound:oligonucleotide ratio of 2:1 (4 μM compounds and 2 μM oligonucleotide) in PBS in a 384-well plate. Emission spectra were measured after excitation at 280 nm in a Tecan Infinite M1000 plate reader. The fluorescent image of the plate was taken with the Bio-Rad ChemiDoc imaging system after UV-light excitation. The Light-up titration experiment was performed similarly as described above with the exception that 4 μM compound 12 was incubated with serial dilutions (1:1) of oligonucleotides (ss G4 LTR wild type, G4 c-myc and G4 c-kit1) spanning final concentrations 2 to 0.002 μM. The excitation at 280 nm and emission at 600 nm were used to monitor the Light-up.

The subject of a further assay is c-myc G-quadruplex. Nature of the assay: Light-up experiment, c-myc. Format: binding. The following applies: 4 μM compound, excitation 280 nm. Here is the method: as §1, §2
The test system of the next assay is ds G4 LTR. In words: Light-up experiment, ds G4 LTR. Format: binding, HIV-1. The following applies: 4 μM compound, excitation 280 nm. How it is done:
as §1, §2

The mark [2] stands for this setting: 2 μM oligonucleotide, excitation 280 nm.

Consider `C(=C\c1cc(/C=C/c2ccc3c(c2)CCO3)[n+]2c(c1)-c1c(ccc3c1-c1cccc[n+]1CCC3)CCC2)/c1ccc2c(c1)CCO2` [Compound 14], for which the “effect on virus adsorption” value in the assay on HIV-1 is on record as “minimal or no effect on virus adsorption”.

Consider `COc1ccc2ccccc2c1/C=C/c1cc[n+]2c(c1)-c1c(c(C)c(C)c3c1-c1cc(/C=C/c4c(OC)ccc5ccccc45)cc[n+]1CC3)CC2` [Compound 15], for which the “effect on virus adsorption” value in the assay on HIV-1 is on record as “minimal or no effect on virus adsorption”.

In the case of `Cn1cc(/C=C/c2cc(/C=C/c3cn(C)c4ccccc34)[n+]3c(c2)-c2c(ccc4c2-c2cccc[n+]2CCC4)CCC3)c2ccccc21` [Compound 12], the fluorescence light-up entry in the assay with h-telo G-quadruplex was “low fluorescence”; in the assay on c-kit1 G-quadruplex, “strong fluorescence”; in assay [1] (setting [2]) it was “strong and specific fluorescence”; with c-myc G-quadruplex it was “strong fluorescence”; in the assay on ds G4 LTR, “very weak fluorescence”. Also, the “effect on virus adsorption” value in the assay with HIV-1 is reported as “minimal or no effect on virus adsorption”. Besides, the “maximum fluorescence intensity with non-G4-forming oligonucleotides (M4 + M5, scrambled), times lower than with wt” value in assay [1] (setting [2]) worked out at 2.5 times. Also, in assay [1] (oligonucleotide concentration of 0.5 μM and below, emission 600 nm), the “fluorescence in light-up titration, ss G4 LTR versus c-myc and c-kit1” value is “stronger fluorescence after incubation with ss G4 LTR”.
